Values after ≈ are worked out from the molar mass of the structure shown. Where two headings read alike, the source gives them in different places.
Assays:
[1] = test system: HIV-1 (IIIB); assay: Antiviral (HIV) assay in MT-4 cells; format: cell-based; details: HIV-1 IIIB in MT-4 cells, 5 days incubation, Cell Titer Glo, average of at least two independent experiments
How it was run: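 MT-4 cells, infected with HIV-1 IIIB (1:250 dilution of concentrated stock) or mock-infected, were exposed to 1:3 serially diluted compounds in RPMI with 10% FBS. After 5 days at 37° C., CellTiter-Glo luminescence was read. EC50 = concentration causing […], from sigmoidal dose-response fits.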

[2] = test system: MT-4 cells; assay: Cytotoxicity assay in MT-4 cells; format: cell-based, human; details: uninfected MT-4 cells, 5 days; average of at least two independent experiments; read-out: MT4 CC50
Method: Compounds were tested in a high-throughput 384-well assay format for their ability to inhibit the replication of HIV-1 (IIIB) in MT-4 cells. Compounds were serially diluted (1:3) in DMSO on 384-well polypropylene plates and further diluted 200-fold into complete RPMI media (10% FBS, 1% P/S) using the Biotek Micro Flow and Labcyte ECHO acoustic dispenser. Each plate contained up to 8 test compounds, with negative (no drug) and positive (5 μM AZT) controls. MT-4 cells were pre-treated with 10 μL of either RPMI (mock-infected) or a fresh 1:250 dilution of HIV-1 IIIB concentrated virus stock. Infected and uninfected MT-4 cells were further diluted in complete RPMI media and added to each plate using a Micro Flow dispenser. After 5 days incubation in a humidified and temperature-controlled incubator (37° C.), Cell Titer Glo (Promega) was added to the assay plates and chemiluminescence read using an Envision plate-reader. EC50 values were defined as the compound concentration that causes a 50% decrease in luminescence signal and were calculated using a sigmoidal dose-response model to generate curve fits and are shown in Table 1.
Example 105: Cytotoxicity Assay in MT-4 Cells
Assays were performed as described in Example 104 except uninfected MT-4 cells were added to each well containing test compound. In addition, 10 μM puromycin was added to the last column of each assay plate to assess a base level of cytotoxicity.

[3] = test system: PBMCs; assay: TFV-DP formation in peripheral blood mononuclear cells (PBMCs); format: in vitro ADME, human; details: activated PBMCs, 1 μM compound, 50% serum, 2 hrs at 37° C.; intracellular volume 0.2 pL/cell; average of at least two independent experiments
Method: Example 109: TFV-DP Formation in Peripheral Blood Mononuclear Cells (PBMCs)
Compounds were tested in a 96-well assay format for the level of TFV-DP loading in PBMCs in the presence of human serum. PBMCs were activated with 100 units/mL recombinant human […] and 2 μg/mL phytohaemagglutinin (PHA) for 36 hrs. After activation, PBMCs (2 million) were incubated with compounds (1 μM) and cell culture media with 50% serum in a 96 well plate for 2 hrs at 37° C. Cells were transferred to a 96 well deep block plate and spun down. Liquid was removed, and cells were washed 2× with 1 mL of 0.9% saline with spin downs between washes. After a final wash and liquid removal, 500 μL of MeOH+200 nM Cl-ATP+200 nM [adenine-^13C5]-tenofovir diphosphate (tetra ammonium salt) was added and thoroughly mixed with the cells. The plate was then spun down and 450 μL of sample was transferred to a new 96 well plate. Supernatants were then evaporated, reconstituted in 80 μl of 1 mM ammonium phosphate and thoroughly vortexed. Blank samples were pooled for serial dilution to construct calibration standards for TFV, TFV-DP and TFV-TP in pmol/million cells. Samples were then transferred to a short-well 96 well plate, centrifuged and injected on an LC-MS/MS for quantification. Values were reported in μM units using an intracellular volume of 0.2 pL/cell.

[4] = physchem; format: physicochemical; details: phosphate buffered saline, 26 °C, aqueous buffer, kinetic from dmso stock, pH 7.4 PBS, 1.0% DMSO, 24-hour incubation at ambient temperature
Method: Example 108: Kinetic Solubility Analysis
Buffer Preparation: 0.1 N HCl: Hydrochloric acid, 0.1 N standardized solution (MP Biomedicals part number 199569). 1×PBS, pH 7.4: Phosphate Buffered Saline (PBS) solution 10× (Fisher Bioreagent part number BP399-500) 50 mL was added to approximately 450 mL HPLC grade H2O. The volume of the solution was then adjusted to 500 mL for a total dilution factor of 1:10 and a final PBS concentration of 1×.
The final DMSO concentration was 1.0% (v/v) and maximum theoretical compound concentration is 100 μM (for compound stock concentration of 10 mM). The filter plate was sealed. Following 24-hour incubation at ambient temperature (24.2-27.5° C.), the samples were vacuum filtered and the filtrates were collected in a 96 well polypropylene plate for analysis. The collection plate was sealed for analysis. Filtrates were injected into the Antek 8060 chemiluminescent nitrogen detector for quantification. The results are reported in μM.
The filtrates were quantified with respect to this calibration curve. Each calculated solubility value was corrected for background nitrogen present in the DMSO and in the medium used to prepare the sample. All reported values for compounds containing adjacent nitrogen atoms in a ring structure were increased by approximately 25%.

[5] = test system: PHHs; assay: TFV-DP formation in primary human hepatocytes (PHHs); format: in vitro ADME; details: 1 μM compound, 1 hour at 37° C., intracellular volume 3 pL/cell, average of at least two independent experiments
Method: Example 110: TFV-DP Formation in Primary Human Hepatocytes (PHHs)
Compounds were tested in a 24-well assay format for the level of TFV-DP formation in PHHs. Cells were seeded (4.0×10^5 cells/well) in collagen coated plates and incubated at 37° C. After 4-6 hours the liquid was removed, 500 μl of new media (2% FBS, 1.5% DMSO) was added, and the cells were incubated at 37° C. overnight. The media is then replaced (2% FBS, 1.0% DMSO), compounds (1 μM) were added and the cells were incubated at 37° C. in the presence of compounds for 1 hour. Media was then removed and cells were washed 2× with 500 μl of 0.9% saline. After a final wash and liquid removal, 500 μL of MeOH+200 nM Cl-ATP+200 nM [adenine-^13C5]-tenofovir diphosphate (tetra ammonium salt) was added and cells were incubated at −80° C. for 30 minutes. The cells were kept on water ice while the MeOH/standard supernatant is pipetted up and down several times and then transferred to a 96 deep-well plate. Supernatants were then evaporated, samples were reconstituted in 80 μl of 1 mM ammonium phosphate and then thoroughly vortexed. Blank samples were pooled for serial dilution to construct calibration standards for TFV, TFV-DP and TFV-TP in pmol/million cells. Samples are then transferred to a short-well 96 well plate, centrifuged and injected on an LC-MS/MS for quantification. […]

Compound | EC50 ([1]; read-out: MT4 HIV EC50) [nM] | CC50 [2] [nM] | Average PBMC TFV-DP [3] [µM] | EC50 ([1]; Human immunodeficiency virus 1, MT4, 120 h) [nM] | solubility kinetic at 24 h [4] [µg/mL] | Average PHH TFV-DP [5] [µM]
C[C@H](Cn1cnc2c(N)ncnc21)OCP(=O)(NC(C)(C)C(=O)OCC1CCC(C)(C)CC1)NC(C)(C)C(=O)OCC1CCC(C)(C)CC1 [Example 13, Bis((4,4-dimethylcyclohexyl)methyl) 2,2′-(((((1-(6-amino-9H-purin-9-yl)propan-2-yl)oxy)methyl)phosphoryl)bis(azanediyl))(R)-bis(2-methylpropanoate)] | 16 | 5470 | 2.6 | – | – | –
CC(C)CCCOC(=O)C(C)(C)NP(=O)(CO[C@H](C)Cn1cnc2c(N)ncnc21)NC(C)(C)C(=O)OCCCC(C)C [Example 67, Bis(4-methylpentyl) 2,2′-(((((1-(6-amino-9H-purin-9-yl)propan-2-yl)oxy)methyl)phosphoryl)bis(azanediyl))(R)-bis(2-methylpropanoate)] | – | – | – | 8 | 38 (≈ 60.7 µM) | –
CCCCCCOC(=O)C(C)(C)NP(=O)(CO[C@H](C)Cn1cnc2c(NC(=O)CCCSC(C)=O)ncnc21)NC(C)(C)C(=O)OCCCCCC [Example 97, Dihexyl 2,2′-(((((1-(6-(4-(acetylthio)butanamido)-9H-purin-9-yl)propan-2-yl)oxy)methyl)phosphoryl)bis(azanediyl))(R)-bis(2-methylpropanoate)] | 13 | 10700 | 1.4 | – | – | 1.60
CCCCCCOC(=O)C(C)(C)NP(=O)(CO[C@H](C)Cn1cnc2c(NC(=O)CC(C)(C)c3c(C)cc(C)cc3OC(C)=O)ncnc21)NC(C)(C)C(=O)OCCCCCC [Example 100, Dihexyl 2,2′-(((((1-(6-(3-(2-acetoxy-4,6-dimethylphenyl)-3-methylbutanamido)-9H-purin-9-yl)propan-2-yl)oxy)methyl)phosphoryl)bis(azanediyl))(R)-bis(2-methylpropanoate)] | 22 | – | 1.9 | – | – | 4.73
C[C@H](Cn1cnc2c(N)ncnc21)OCP(=O)(NC(C)(C)C(=O)OCCc1ccccc1)NC(C)(C)C(=O)OCCc1ccccc1 [Example 103, Diphenethyl 2,2′-(((((1-(6-amino-9H-purin-9-yl)propan-2-yl)oxy)methyl)phosphoryl)bis(azanediyl))(R)-bis(2-methylpropanoate)] | > 500 | > 42500 | 0.4 | – | – | –

From US12110305B2, “Prodrugs of phosphonamide nucleotide analogues and their pharmaceutical use” (priority 2020, dated 2024)
